Results: patent publication US20150174144A1, “TETRACYCLINE COMPOUNDS FOR TREATING NEURODEGENERATIVE DISORDERS” (PARATEK PHARMACEUTICALS, INC., priority 2012, published 2015)

What was measured:
[1] = Alkylperoxy radical scavenging assay (AIPH, AE-Trolox oxidation)
Method: In a separate assay, alkylperoxy radicals were generated in vitro using the radical generator AIPH (2,2′-azobis-[2-(2-imidazolyn-2-yl)-propane) and the ability of tetracyclines to scavenge these radicals was determined. […] Also, the ability of Compound 1 and minocycline to specifically scavenge peroxynitrite-carbonate radicals was determined.
In this study, alkylperoxy radicals were generated in vitro using the radical generator AIPH (2,2′-azobis-[2-(2-imidazolyn-2-yl)-propane) and the ability of tetracyclines, such as Compound 1, to scavenge these radicals was determined.
Trolox is a known scavenger of peroxyradicals. Structurally similar to a-tocopherol, Trolox reacts with peroxyradicals via a known mechanism with linear kinetics under excess oxygen conditions. In the presence of a competing antioxidant compound, the rate of Trolox oxidation will change based on the relative rate of oxidation and concentration of the competing antioxidant compound (Huang, et al., J. Agric. Food Chem. 2005, 25, 1841-1856). By measuring the effect of antioxidant concentration on the rate of degradation of Trolox, the relative antioxidant capacity of a compound can be determined. This principle is the basis of the widely used antioxidant capacity assay, ORAC (Huang, et al., J. Agric. Food Chem. 2002, 50, 1815-1821). Unlike ORAC which uses a fluorescent dye indicator, the assay described here directly measures the oxidation of the Trolox derivative, 2-aminoethyl-Trolox (AE-Trolox). This method eliminates interference of the fluorescent dye reaction by tetracycline compounds.
To the first column of a 96-well PCR plate (0.2 mL volume) was added 160 μL of TCWS. One well of the first column would equal one IC50 determination. […] To the remaining wells in columns 2-11 was added 80 μL of AET-WS. Using a multichannel pipettor, column 1 was serially diluted in 2-fold dilutions by removing 80 μL from column 1 and transferring with mixing to column 2. Column 2 was then diluted to column 3 and so on until column 11 where 80 μL of the diluted mixture was removed and discarded. Four wells of row 12 were designated as the 0 test compound/0 AIPH control to which 80 μL of AET-WS was added. One well of row 12 per test compound was designated as the 0 test compound control to which 80 μL of the AET-WS was added.
The plate was covered and incubated for 5 minutes at 37° C. upon which the reaction was initiated by addition of 20 μL of AIPH to columns 1-11 using a multichannel pipettor with mixing. The reaction was initiated similarly to the 0 test compound wells of column 12. To the 0 test compound/0 AIPH control wells was added 20 μL of PB buffer. The plate was incubated at 37° C. for 8 minutes (the reaction is linear for 10 minutes) and quenched by addition of 50 μL of AA to all wells with mixing. The plate was placed on ice for 5 minutes. Quenched assay mixtures were stable at room temperature for at least 24 hours.
Each reaction mixture was analyzed for AE-Trolox by 2D-LCMS on a Shimadzu 2010 equipped with a loading column (Shim-pack MAYI-ODS, 4.6×10 mm) and a gradient column Phenomenex Luna C18(2) column, 3 um, 4.6×50 mm. Using an automated 2-position swithching valve, samples were loaded onto the loading column by Pump C and washed for 1 minute with loading buffer. At 1 minute, the valve was switched to elution position (Position B, reversed flow through loading column) and the samples were eluted through the gradient column. The loading buffer (Buffer C) was 10% acetonitrile in water with 0.2% formic acid and the gradient buffers were water+0.2% formic acid (A buffer) and acetonitrile+0.2% formic acid (B buffer). Typical injection volumes were 30 μL.
From the TIC integration of AE-Trolox and AE-Trolox-d4, a ratio was calculated:
Ratio=AUCAE-Trolox/AUCAE-Trolox-d4
Percent inhibition of AE-Trolox oxidation (measured as disappearance of AE-Trolox) was then determined by:
% Inhibition=[1−((Ratio0−Ratiox)/(Ratioo−Ratiof))]*100

[2] = Cardiovascular safety study in monkeys; type: in vivo
[3] = 14-day acute toxicity and 28-day toxicology study in rats; type: in vivo
Method: The compound was also shown to be negative in a GLP phototoxicity assay. […] Both 14-day acute toxicity and 28-day toxicology study were performed in rats with Compound 1 along with minocycline for comparison. Animals were administered daily oral doses from 15 to 150 mg/kg for up to 4 weeks followed by a recovery period.

## CCc1cc(N(C)C)c2c(c1O)C(=O)C1=C(O)[C@]3(O)C(=O)C(C(N)=O)=C(O)[C@@H](N(C)C)[C@@H]3C[C@@H]1C2 [Compound 1]
[1]; 5 mM AIPH, 37° C., 8 minutes, read-out: IC50, inhibition of AE-Trolox oxidation (alkylperoxy radical scavenging)
  IC50: 12.6 µM
[1]; relative to Trolox
  Percent Trolox Activity: 71%
  Trolox Equivalents: 0.71
[2]
  Cardiovascular safety findings: No treatment-related effects were observed
[3]; at comparable doses to minocycline
  Thyroid tissue staining: little or no thyroid tissue staining
[3]; daily oral doses from 15 to 150 mg/kg for up to 4 weeks
  Adverse effects: Few adverse effects were observed at any dose
